Legend:
Assay type in all cases: cell-based
[1] = tested on: PC-3 human prostate cancer cells; experiment: MTT cell proliferation assay, PC-3; conditions: for IC50: Homo sapiens, MTT, 24 hours, PC-3, mean ± S.D.
Description: (§1) Human prostate normal cell line (RWPE-1) and human prostate cancer cell lines; LNCaP and PC-3, were purchased from the American Type Culture Collection (ATCC, Manassas, Virginia, USA). LNCaP and PC-3 cells were grown in Roswell Park Memorial Institute medium (RPMI) supplemented with 10% heat-inactivated fetal bovine serum (FBS, Sigma-Aldrich, St. Louis, MO), 1% penicillin and streptomycin. RWPE-1 cells were maintained in Keratinocyte Serum Free Medium (K-SFM, ATCC) supplemented with bovine pituitary extract (BPE) and human recombinant epidermal growth factor (EGF). Mediums were supplemented with 10% heat-inactivated fetal calf serum (Sigma.), 100 U/ml penicillin and […] streptomycin (Flowlab, Sydney, Australia). All cells were maintained in a humidified atmosphere of 5% CO2 in air at 37°C incubator.
(§2) The anti-proliferative activity was evaluated by performing MTT assays as previously described with minor modifications. Briefly, cells were seeded 24 hours prior to treatment in a 96-well plate at 5×10^4 cells/well in order to obtain 70% to 80% confluent cultures. The compounds were dissolved in DMSO (Sigma Chemical Co., St. Louis, Missouri, USA) followed by a 2×serial dilution for 10 points ranged from 0.825 µM to 100 µM. The 96-well plate was incubated for 24 hours at 37°C in a humidified atmosphere with 5% CO2. At the end of incubation, 50 µl of MTT solution (2 mg/ml; Sigma) was added to each well. The plate was then incubated for 4 hours. All medium was removed and the purple formazan crystal formed at the bottom of the wells was dissolved with 200 µl DMSO for 20 minutes. The absorbance at 570 nm was read on a spectrophotometric plate reader (Hidex). The proportion of surviving cells was calculated as: […]
(§3) Dose-response curves were constructed to obtain the IC50 values. Experimental data were derived from 3 independent experiments. The selectivity index was obtained by mean IC50 RWPE-1/mean IC50 of LNCaP or PC-3.

[2] = tested on: LNCaP human prostate cancer cells; experiment: MTT cell proliferation assay, LNCaP; conditions: for IC50: Homo sapiens, MTT, 24 hours, LNCaP, mean ± S.D.
Description: as §1, §2, §3

[3] = tested on: RWPE-1 human normal prostate epithelial cells; experiment: MTT cell proliferation assay, RWPE-1; conditions: 24 hours, RWPE-1 normal cells, mean ± S.D.
Description: as §1, §2, §3

SMILES | IC50 [1] [µM] | IC50 [2] [µM] | IC50 [3] [µM] | selectivity index (SI) PC-3 ([1]; mean IC50 RWPE-1/mean IC50 of PC-3) | selectivity index (SI) LNCaP ([2]; mean IC50 RWPE-1/mean IC50 of LNCaP)
Cc1cc2cc3n(c(=O)c2cn1)CCc1c-3[nH]c2ccccc12 [Angustidine, angustidine] | 84.9 ± 1.48 | 140.27 ± 0.1 | 36.07 ± 0.05 |  | 
C=Cc1cncc2c(=O)n3c(cc12)-c1[nH]c2ccccc2c1CC3 [Angustine, angustine] | 122 ± 3.73 | 149.16 ± 0.09 | 98.39 ± 0.1 |  | 
CC(O)c1cncc2c(=O)n3c(cc12)-c1[nH]c2ccccc2c1CC3 (centres unmarked) [Angustoline, 1-(1-Hydroxyethyl)-7,8-dihydroindolo[2,3-a]pyridine[3,4-g]quinolizin-5(13H)-one] | 67.3 ± 0.87 | 58.09 ± 0.05 | 65.94 ± 0.04 |  | 
O=c1c2cnccc2cc2n1CCc1c-2[nH]c2ccccc12 [Nauclefine, nauclefine] | 92.1 ± 1.28 | 86.35 ± 0.09 | 72.85 ± 0.06 |  | 
CC(=O)O[C@H]1C(=O)[C@@]2(C)[C@H]([C@H](OC(=O)c3ccccc3)[C@]3(O)C[C@H](OC(=O)[C@H](O)[C@@H](NC(=O)c4ccccc4)c4ccccc4)C(C)=C1C3(C)C)[C@]1(OC(C)=O)CO[C@@H]1C[C@@H]2O [Paclitaxel, paclitaxel, reference compound] | 1.33 ± 0.02 | 1.27 ± 0.04 | 1.58 ± 0.06 | 1.19 | 1.24

Source: publication PMC3925085, “Subditine, a New Monoterpenoid Indole Alkaloid from Bark of Nauclea subdita (Korth.) Steud. Induces Apoptosis in Human Prostate Cancer Cells” (PLoS ONE, 2014)
